SMILES strings stand for the structures.

Data set [1] relates to SU-DHL-1 tumors. Description: SU-DHL-1 xenograft human lymphoma model. Format: in vivo, SCID/NOD mice. As for the experimental part: FIGS. 9A-9B Pharmacokinetics and efficacy of EP009 in vivo. (A) Sprague Dawley rats were administered EP009 by oral gavage (200 mg/kg) and pharmacokinetics measured by analysis of plasma concentrations at indicated time points. Values represent mean concentrations, while error bars represent the standard deviation (n=5). (B) Therapeutic study of EP009 in SU-DHL-1 model in SCID/NOD mice.
Severe combined immunodeficient/nonobese diabetic (SCID/NOD) mice were purchased from Charles River (Milan, Italy). The SU-DHL-1 model, 28 which was established by subcutaneous injection of 1×10^7 SU-DHL-1 cells in the left flank of SCID/NOD mice, served as the xenograft human lymphoma model. Tumor masses were measured with caliper in two perpendicular diameters in a blind fashion to determine the longest diameter. Progressively growing masses >1 mm in diameter were regarded as tumors. Mice were divided into three groups (n=8/group) and treatments initiated when tumors were established and measurable (day 16 after tumor challenge). Control mice received oral gavage of saline (placebo), while treated mice received EP009 orally (100 or 200 mg/kg) three times per week for six weeks. The study was terminated when tumors began to show signs of ulcerations and measurements became inaccurate (day 58). All animal were maintained in the animal facility of the Molecular Biotechnology Center, University of Turin and treated in accordance with the European guidelines.
Background: A xenograft is tissue or cells of one species grown in another, often human tumour cells in immunodeficient mice.

For data set [2], the system named is SU-DHL-1 cells. Description: SU-DHL-1 cell viability (MTS). The following applies: Homo sapiens; SU-DHL-1, 72 hours. Format: cell-based. How it is done:
FIGS. 7A-7C. EP009 reduces ALCL cell viability through induction of caspase 3 mediated apoptosis. (A) SUP-M2, SU-DHL-1 or H2228 cells were cultured with increasing amounts of EP009 (0-10 μM) for 72 hours and cell viability measured with the MTS tetrazolium salt assay. Values represent mean absorbance (OD490-OD650 nm) normalized to vehicle (PBS) treated control cells, while error bars represent the standard deviation (n=3). (B) SU-DHL-1 cells were treated with vehicle (PBS) or increasing amounts of EP009 (0-50 μM) for 24 hours. Cells were then lysed, clarified, and subjected to Luminex multiplex analysis to detect activated caspase 3 and (C) cleaved PARP. Values represent MFI normalized to corresponding GAPDH MFI, while error bars represent the standard deviation (n=2). Representative data from three independent experiments are shown. Statistical significance was determined using Student's t-test. (*, p<0.05).
Cell viability was assessed with 3-(4,5-dimethylthiazol-2-yl)-5-(3-carboxymethoxyphenyl)-2-(4-sulfophenyl)-2H-tetrazolium salt (MTS) reagent (Promega) in triplicates according to the manufacturer's instructions. Three independent experiments were performed. The error bars represent standard deviation.

The target of data set [3] is RIOK2 (Homo sapiens, UniProt Q9BVS4). In words: Kinase panel: RIOK2. It counts as biochemical. As to conditions: 10 μM EP009. How it is done: (§1) Achieving JAK3 selectivity remains a significant challenge in the development of new small molecules for the treatment of cancer and immune-derived diseases. As such, the inventors employed cell-based screening assays of small-molecule libraries based upon the chemical scaffold of the established JAK3 inhibitor NC1153 (Stepkowski et al., J Immunol. (2005), 175(7):4236-4246) EP009 (FIG. 2A) was selected as a lead compound due to improved intrinsic stability (>95% purity in various solvents at 37° C. for 24 hours; FIG. 3) and high-degree of JAK3 selectivity. To test JAK3 versus JAK2 specificity of EP009, the IL-2/JAK3-dependent Kit225, and IL-3/JAK2-dependent BaF/3 cell lines were used. Kit225 and BaF/3 cells growing in the presence of IL-2 or IL-3, respectively, were treated with ascending concentrations of EP009 for 12 hours and cellular JAK3 and JAK2 tyrosine phosphorylation levels detected by Western blot analysis (FIGS. 2B and 2C). Following densitometric analysis, EP009 was determined to dose-dependently reduce IL-2-mediated JAK3 tyrosine phosphorylation with a cellular 50% inhibitory concentration (IC50) between 10 and 20 μM (FIG. 2B). […] To globally evaluate specificity, the inhibitory activity of EP009 was measured against a panel of protein kinases distributed throughout the kinome using the scanEDGE profiling service (KINOMEscan). […]
RIOK2, sequence (Q9BVS4 whole entry): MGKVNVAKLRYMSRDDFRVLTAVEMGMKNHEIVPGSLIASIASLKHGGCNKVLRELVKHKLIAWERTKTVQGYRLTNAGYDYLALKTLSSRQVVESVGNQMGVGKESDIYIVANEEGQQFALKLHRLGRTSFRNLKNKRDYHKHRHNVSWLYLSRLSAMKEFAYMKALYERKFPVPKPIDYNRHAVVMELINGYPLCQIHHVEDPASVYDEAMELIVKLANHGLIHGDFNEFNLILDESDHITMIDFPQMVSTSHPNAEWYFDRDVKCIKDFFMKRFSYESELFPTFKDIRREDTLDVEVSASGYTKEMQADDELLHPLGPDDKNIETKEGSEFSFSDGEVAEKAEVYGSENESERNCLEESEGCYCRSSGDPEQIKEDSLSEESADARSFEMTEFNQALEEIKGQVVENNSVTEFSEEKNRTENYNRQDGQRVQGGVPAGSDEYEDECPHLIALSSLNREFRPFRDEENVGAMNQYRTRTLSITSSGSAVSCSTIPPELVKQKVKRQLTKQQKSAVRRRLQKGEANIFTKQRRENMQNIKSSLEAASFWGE

For data set [4], the target named is RET (Homo sapiens, UniProt P07949). Description: Kinase panel: RET. The following applies: 10 μM EP009. It counts as biochemical. As for the experimental part: as §1
RET, sequence (P07949 29-1114): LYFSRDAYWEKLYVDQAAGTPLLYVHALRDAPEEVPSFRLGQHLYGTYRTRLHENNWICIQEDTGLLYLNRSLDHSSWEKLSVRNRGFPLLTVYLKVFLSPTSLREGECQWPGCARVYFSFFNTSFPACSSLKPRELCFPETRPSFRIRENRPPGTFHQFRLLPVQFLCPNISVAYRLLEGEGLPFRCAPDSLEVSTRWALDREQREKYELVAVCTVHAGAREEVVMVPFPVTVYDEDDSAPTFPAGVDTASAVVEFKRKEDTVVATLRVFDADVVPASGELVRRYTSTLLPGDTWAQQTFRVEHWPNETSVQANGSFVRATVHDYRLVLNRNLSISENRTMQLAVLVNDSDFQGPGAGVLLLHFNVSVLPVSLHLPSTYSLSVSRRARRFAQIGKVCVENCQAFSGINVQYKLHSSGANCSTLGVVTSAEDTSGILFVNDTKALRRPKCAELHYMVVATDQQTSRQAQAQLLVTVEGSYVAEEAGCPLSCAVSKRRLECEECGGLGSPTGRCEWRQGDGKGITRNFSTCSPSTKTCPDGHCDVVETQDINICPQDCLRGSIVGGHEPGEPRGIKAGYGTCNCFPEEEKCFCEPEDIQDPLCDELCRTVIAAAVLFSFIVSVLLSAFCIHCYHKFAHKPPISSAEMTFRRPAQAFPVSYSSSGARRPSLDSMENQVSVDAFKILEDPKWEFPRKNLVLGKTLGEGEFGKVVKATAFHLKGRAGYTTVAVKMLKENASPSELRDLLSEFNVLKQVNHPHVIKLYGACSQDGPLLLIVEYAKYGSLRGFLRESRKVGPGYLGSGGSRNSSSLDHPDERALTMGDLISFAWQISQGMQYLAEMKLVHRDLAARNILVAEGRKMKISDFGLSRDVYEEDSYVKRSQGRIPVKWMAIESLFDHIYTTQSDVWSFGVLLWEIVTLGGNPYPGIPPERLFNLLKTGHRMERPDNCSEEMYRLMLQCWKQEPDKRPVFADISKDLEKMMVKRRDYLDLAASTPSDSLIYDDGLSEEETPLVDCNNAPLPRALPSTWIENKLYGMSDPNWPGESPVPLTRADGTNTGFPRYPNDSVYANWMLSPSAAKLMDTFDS
Data set [5] has as its target AKT2 (Homo sapiens, UniProt P31751). In words: Kinase panel: AKT2. As to conditions: 10 μM EP009. It counts as biochemical. As for the experimental part: as §1

AKT2, sequence (P31751 whole entry): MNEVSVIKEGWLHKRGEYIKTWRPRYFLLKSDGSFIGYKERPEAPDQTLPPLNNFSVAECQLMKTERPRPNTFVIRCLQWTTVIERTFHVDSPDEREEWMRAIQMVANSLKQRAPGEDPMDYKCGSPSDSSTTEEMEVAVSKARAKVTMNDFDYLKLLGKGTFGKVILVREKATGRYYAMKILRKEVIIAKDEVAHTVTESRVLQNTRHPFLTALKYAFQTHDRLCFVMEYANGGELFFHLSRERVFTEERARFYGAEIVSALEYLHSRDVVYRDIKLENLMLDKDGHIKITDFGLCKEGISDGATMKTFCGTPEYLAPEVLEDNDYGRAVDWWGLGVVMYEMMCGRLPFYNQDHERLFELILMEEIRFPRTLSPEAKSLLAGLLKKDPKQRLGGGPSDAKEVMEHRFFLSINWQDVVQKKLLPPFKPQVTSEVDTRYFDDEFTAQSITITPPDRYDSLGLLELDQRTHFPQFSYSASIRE

A word on the IC50: it is the concentration needed to halve the response being measured. Lower therefore signals higher potency. For `C=C1CCCCCCCCCC(CO)C1=O` (stereo not shown) [EP009, 2-(Hydroxymethyl)-12-methylenecyclododecanone], the tumor growth inhibition worked out at 37.5% in data set [1] (oral 100 mg/kg three times per week, p<0.05) and 51% in data set [1] (oral 200 mg/kg three times per week, p<0.01). In addition, the body weight changes entry in data set [1] (oral 100 and 200 mg/kg) was “No significant body weight changes”. This compound yielded an IC50 in data set [2] of 5 µM. The “Kinase Activity (% of Control)” value is 69 % of Control in data set [3], 100 % of Control in data set [4] and 100 % of Control in data set [5].

For the origin of these results see patent US9371265B2, “Compositions and methods related to inhibitors of JAK kinase” (EP PHARMA, INC., priority 2012, dated 2016).
